The values below come from ChEMBL document CHEMBL2177008, “Discovery of benzodiazepine sulfonamide-based bombesin receptor subtype 3 agonists and their unusual chirality” (ACS Med Chem Lett, 2011).

One may read the EC50 as the concentration that produces a half-maximal response. What is called bioavailability is dose-corrected exposure relative to a reference, in per cent. Read a low bioavailability as poor availability. For orientation: half-life means the time in which the quantity being followed falls by half. For orientation: clearance means a measure of how efficiently the substance is removed, as volume per time. A high value points to a high capacity for elimination. For orientation: IC50 means the midpoint of a concentration-inhibition curve. Low readings indicate higher potency, high ones lower potency.

The structures appear in SMILES notation.

Series [1] deals with T1, Bombesin receptor subtype-3 (Mus musculus, UniProt O54798).
T1 sequence (O54798 whole entry): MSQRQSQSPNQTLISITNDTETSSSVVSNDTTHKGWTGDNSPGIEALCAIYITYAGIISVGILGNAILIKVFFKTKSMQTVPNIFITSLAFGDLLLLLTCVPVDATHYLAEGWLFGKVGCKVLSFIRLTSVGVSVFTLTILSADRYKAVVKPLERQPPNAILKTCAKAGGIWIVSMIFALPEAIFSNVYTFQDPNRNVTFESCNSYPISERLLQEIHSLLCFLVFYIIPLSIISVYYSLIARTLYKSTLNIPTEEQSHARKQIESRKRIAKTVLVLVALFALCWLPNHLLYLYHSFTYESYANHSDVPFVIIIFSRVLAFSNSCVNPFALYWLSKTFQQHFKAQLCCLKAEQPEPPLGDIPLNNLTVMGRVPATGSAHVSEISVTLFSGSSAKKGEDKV
As to the kind of experiment: Agonist activity at mouse BRS3 expressed in HEK293 cells expressing aequorin measured for 30 secs by bioluminescence assay. In kind it is functional, cell-based.

Series [2] concerns the target T2, Bombesin receptor subtype-3 (Homo sapiens, UniProt P32247).
T2 sequence (P32247 whole entry): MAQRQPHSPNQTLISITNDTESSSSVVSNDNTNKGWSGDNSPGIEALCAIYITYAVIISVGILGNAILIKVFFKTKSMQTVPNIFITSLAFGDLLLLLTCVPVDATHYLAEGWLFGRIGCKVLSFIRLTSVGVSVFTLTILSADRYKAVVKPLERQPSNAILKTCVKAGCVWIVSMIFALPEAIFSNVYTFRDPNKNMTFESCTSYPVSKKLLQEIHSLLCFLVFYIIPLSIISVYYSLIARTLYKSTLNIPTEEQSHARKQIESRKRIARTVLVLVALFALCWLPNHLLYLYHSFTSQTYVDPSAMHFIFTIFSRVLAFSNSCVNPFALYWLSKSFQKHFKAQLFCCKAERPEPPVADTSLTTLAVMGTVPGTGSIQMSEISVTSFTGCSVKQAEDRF
Briefly: Agonist activity at human BRS3 expressed in HEK293 cells expressing aequorin measured for 30 secs by bioluminescence assay. The format is functional, cell-based.

Series [3] can be described thus: Oral bioavailability in Sprague-Dawley rat at 4 mg/kg. In kind it is ADME, organism-based. Particulars: in vivo.
The nature of series [4]: Half life in Sprague-Dawley rat at 1 mg/kg, iv. In kind it is ADME, organism-based. Details: dose 1 mg/kg, route intravenous. Conditions: in vivo.
The nature of series [5]: Plasma clearance in Sprague-Dawley rat at 1 mg/kg, iv. On the set-up: dose 1 mg/kg, route intravenous. In kind it is ADME, organism-based.
For series [6], the system named is Rattus norvegicus. Briefly: Dose normalized AUC in Sprague-Dawley rat at 4 mg/kg, po. On the set-up: dose 4 mg/kg, route oral. In kind it is ADME, organism-based. Conditions: in vivo.
In series [7] the target is T3, Bombesin receptor subtype-3 (Mus musculus) (UniProt O54798).
T3 sequence (whole entry): T1 sequence (O54798 whole entry)
As to the kind of experiment: Agonist activity at mouse BRS3 expressed in HEK293 cells expressing aequorin measured for 30 secs by bioluminescence assay relative to [125I]-[D-Tyr6,beta-Ala11,Phe13,Nle14]-Bombesin(6-14). The format is functional, cell-based.

The target in series [8] is T2, Bombesin receptor subtype-3. Briefly: Displacement of [125I]-[D-Tyr6,beta-Ala11,Phe13,Nle14]-Bombesin(6-14) from human BRS3 expressed in CHO cells expressing NFAT after 2 hrs by liquid scintillation counting. In kind it is cell-based.
Series [9] relates to Mus musculus. As to the kind of experiment: Antiobesity activity in diet-induced obese wild type C57 mouse assessed as weight loss at 3 mg/kg, po administered QD 60 mins prior to dark cycle onset relative to control. The format is functional.

With `Cc1ccc2c(c1C)Nc1nc(C(F)(F)F)ccc1CN2S(=O)(=O)c1ccc(C(C)(C)C)cc1`, the EC50 in [1] and in [2] was greater than 10000 nM throughout.
With `CC(C)(C)c1ccc(S(=O)(=O)N2Cc3ccc(C(F)(F)F)nc3Nc3cccc(Cl)c32)cc1`, the bioavailability in [3] worked out at 34%. The half-life in [4] was 1.4 h. The EC50 in [1] was determined as 155 nM; in series [2], 63 nM. In series [5], the clearance came to 46 mL/min/kg. The same molecule came in with an AUC/dose in series [6] of 0.26 µM·kg·h/mg. This molecule also registered a max activation in [7] of 100%. The molecule also returned an IC50 in [8] of 3.2 nM.
In the case of `Cc1ccc2c(c1C)N(S(=O)(=O)c1csc(C(F)(F)F)c1)Cc1ccc(C(F)(F)F)nc1N2`, the EC50 in [1] came out at 96 nM; in series [2], 123 nM. Besides, in [7], the max activation is 103%. The molecule further came in with an IC50 in series [8] of 14 nM.
`Cc1ccc2c(c1C)N(S(=O)(=O)c1ccc(C(C)C)cc1)Cc1ccc(C(F)(F)F)nc1N2` registered a bioavailability in series [3] of 10%. Besides, the half-life in series [4] is 3.5 h. In addition, the EC50 is 84 nM in series [1] and 49 nM in series [2]. For the same molecule, the clearance in series [5] is 16 mL/min/kg. In series [6], this molecule gave an AUC/dose of 0.24 µM·kg·h/mg. The same molecule gave a max activation in [7] of 110%. Further, the IC50 in series [8] was found to be 1.6 nM.
On to `Cc1c(C(=O)NN2CCCCC2)nn(-c2ccc(Cl)cc2Cl)c1-c1ccc(I)cc1`, for which the Activity in series [9] came out at 6.2%.
`Cc1ccc2c(n1)Nc1ccc(C)c(C)c1N(S(=O)(=O)c1ccc(C(C)(C)C)cc1)C2`: the EC50 in series [1] was 232 nM; in series [2], 131 nM. Besides, the max activation in series [7] came out at 107%. The molecule further returned an IC50 in series [8] of 10 nM.
Regarding `Cc1ccc2c(c1C)N(S(=O)(=O)c1ccc(C(C)(C)F)cc1)Cc1ccc(C(F)(F)F)nc1N2`, the EC50 in series [1] was determined as 200 nM; in series [2] it was 69 nM. In [7], this molecule registered a max activation of 108%. The molecule further had a concentration for half-maximal inhibition (IC50) in series [8] of 5.7 nM.
For the molecule `CC(C)(C)c1ccc(S(=O)(=O)N2Cc3ccc(C(F)(F)F)nc3Nc3ccc4ncccc4c32)cc1`, the EC50 came to 129 nM in series [1] and 108 nM in series [2]. In series [7], the max activation stood at 107%. This molecule showed an IC50 in series [8] of 0.7 nM.
In the case of `CC(C)(C)c1ccc(S(=O)(=O)N2Cc3ccc(C(F)(F)F)nc3Nc3ccccc32)cc1`, the concentration for a half-maximal effect (EC50) stood at 161 nM in series [1] and 110 nM in series [2]. In series [7], this molecule registered a max activation of 98%. Also, the IC50 in [8] was determined as 5.5 nM.
Consider `Cc1ccc2c(c1C)N(S(=O)(=O)c1ccc(C(C)(C)C)cc1)Cc1ccc(C#N)nc1N2`, for which the EC50 in series [1] and in [2] was 50 nM throughout. The molecule further registered a max activation in series [7] of 103%. The same molecule registered an IC50 in [8] of 4.4 nM.
Regarding `Cc1ccc2c(c1C)N(S(=O)(=O)c1ccc(OC(F)(F)F)cc1)Cc1ccc(C(F)(F)F)nc1N2`, the EC50 in series [1] was determined as 80 nM; in series [2], 43 nM. The max activation in [7] amounted to 103%. Besides, the IC50 in series [8] was 3.3 nM.
Take `Cc1ccc2c(c1C)N(S(=O)(=O)c1ccc(C(C)(C)C)cc1)Cc1cc(F)c(Cl)nc1N2`: the EC50 was 371 nM in series [1] and 277 nM in series [2]. In addition, in series [7], the max activation was determined as 82%. The molecule further displayed an IC50 in [8] of 8.9 nM.
`Cc1ccc2c(n1)N(S(=O)(=O)c1ccc(C(C)(C)C)cc1)Cc1ccc(C(F)(F)F)nc1N2`: the EC50 stood at 171 nM in series [1] and 110 nM in [2]. In series [7], this molecule registered a max activation of 112%.
With `Cc1ccc2c(c1C)N(S(=O)(=O)c1ccc(C(F)(F)F)cc1)Cc1ccc(C(F)(F)F)nc1N2`, the 50% effective concentration (EC50) in [1] came out at 79 nM; in series [2], 154 nM. Also, the max activation in series [7] came to 100%. Also, the concentration for half-maximal inhibition (IC50) in series [8] was determined as 6.8 nM.
In series [3], `Cc1ccc2c(c1C)N(S(=O)(=O)c1ccc(C(C)(C)C)cc1)Cc1cccnc1N2` returned a bioavailability of 1%. In addition, in series [4], the half-life is 1.6 h. Also, the EC50 in [1] was 248 nM; in series [2], 325 nM. The molecule also returned a clearance in series [5] of 164 mL/min/kg. The same molecule displayed an AUC/dose in series [6] of 0.007 µM·kg·h/mg. The max activation in [7] was 101%. Besides, the IC50 in series [8] was found to be 40 nM.
Molecule `Cc1cccc2c1N(S(=O)(=O)c1ccc(C(C)(C)C)cc1)Cc1ccc(C(F)(F)F)nc1N2` displayed a bioavailability in [3] of 14%. For the same molecule, the half-life in [4] is 1.6 h. Besides, the values for the 50% effective concentration (EC50) in [1] and in series [2] were 120 nM and 50 nM, respectively. Moreover, in series [5], the clearance was 38 mL/min/kg. In addition, in [6], the AUC/dose worked out at 0.13 µM·kg·h/mg. The max activation in [7] stood at 106%. The IC50 in series [8] was 0.9 nM.
On to `Cc1ccc2c(c1C)N(S(=O)(=O)c1ccc(S(C)(=O)=O)cc1)Cc1ccc(C(F)(F)F)nc1N2`, for which the values for the EC50 in series [1] and in [2] were 561 nM and 543 nM, respectively. The molecule also gave a max activation in series [7] of 46%. This molecule also yielded a half-maximal inhibitory concentration (IC50) in [8] of 73 nM.
As for `Cc1ccc2c(c1)N(S(=O)(=O)c1ccc(C(C)(C)C)cc1)Cc1ccc(C(F)(F)F)nc1N2`, the bioavailability in series [3] was determined as 22%. In series [4], this molecule gave a half-life of 2.2 h. For the same molecule, the figures for the EC50 in series [1] and in [2] were 377 nM and 199 nM, respectively. In series [5], this molecule had a clearance of 24 mL/min/kg. Also, in series [6], the AUC/dose is 0.31 µM·kg·h/mg. Also, the max activation in series [7] came out at 82%. For the same molecule, the concentration for half-maximal inhibition (IC50) in series [8] was found to be 5.8 nM.
For the molecule `Cc1ccc2c(c1C)N(S(=O)(=O)c1ccc(C(F)(F)F)s1)Cc1ccc(C(F)(F)F)nc1N2`, the concentration giving a half-maximal response (EC50) worked out at 154 nM in [1] and 158 nM in series [2]. This molecule also gave a max activation in [7] of 90%. The 50% inhibitory concentration (IC50) in [8] was 10 nM.
As for `CC(C)(C)c1ccc(S(=O)(=O)N2Cc3ccc(C(F)(F)F)nc3Nc3ccc(C(C)(C)O)c(F)c32)cc1`, the bioavailability in [3] was determined as 13%. In addition, the half-life in series [4] is 3 h. Moreover, the EC50 in series [1] worked out at 134 nM; in series [2], 77 nM. The molecule further came in with a clearance in series [5] of 24 mL/min/kg. The AUC/dose in series [6] came out at 0.19 µM·kg·h/mg. The molecule also gave a max activation in [7] of 97%. This molecule also yielded an IC50 in series [8] of 5 nM.
With `CC(C)(C)c1ccc(S(=O)(=O)N2Cc3ccc(C(F)(F)F)nc3Nc3cccc(O)c32)cc1`, the values for the concentration giving a half-maximal response (EC50) in series [1] and in series [2] were 209 nM and 88 nM, respectively. This molecule also yielded a max activation in [7] of 115%. In series [8], this molecule showed a half-inhibitory concentration (IC50) of 2.2 nM.
Consider `Cc1ccc2c(c1C)N(S(=O)(=O)c1ccc(C(C)(C)C)cc1)Cc1cc(Cl)cnc1N2`, for which the 50% effective concentration (EC50) in series [1] and in series [2] was greater than 10000 nM throughout. Moreover, the IC50 in series [8] was 430 nM.
With `Cc1ccc2c(c1C)N(S(=O)(=O)c1ccc(C(C)(C)C)cc1)Cc1ccc(Cl)nc1N2`, the EC50 was found to be 98 nM in series [1] and 38 nM in [2]. In series [7], this molecule had a max activation of 105%. The IC50 in series [8] was determined as 1.2 nM.
In the case of `Cc1ccc2c(c1C)N(S(=O)(=O)c1ccc(C(C)(C)C#N)cc1)Cc1ccc(C(F)(F)F)nc1N2`, the EC50 in series [1] was 79 nM; in series [2], 60 nM. The same molecule had a max activation in series [7] of 83%. Further, in [8], the IC50 amounted to 5.7 nM.
